Results taken from US20100137315A1, “Sphingosine Kinase Inhibitors and Methods of Their Use” (APOGEE BIOTECHNOLOGY CORPORATION, priority 2005, published 2010).
Read-outs that look alike come from different tables or passages of the source.

Tests used:
[1] = test system: MCF-7 human breast adenocarcinoma cells; assay: Cytotoxicity, SRB assay, 48 h; type: cell-based; settings: Table 6, 48 h, SRB, inhibition of cell proliferation, read-out: MCF-7 IC50
Procedure: To further assess the biological efficacies of the Compounds in intact cells, each Compound was evaluated for cytotoxicity using human cancer cell lines. These experiments followed methods that have been extensively used. Cell lines tested included MCF-7 human breast adenocarcinoma cells. The indicated cell lines were treated with varying doses of the test Compound for 48 h. Cell survival was then determined using the SRB binding assay (Skehan et al., 1990, J Natl Cancer Inst 82: 1107), and the concentration of compound that inhibited proliferation by 50% (the IC50) was calculated. Values (in μM) represent the mean±sd for replicate trials.

recombinant human SK = molecular target: T1, recombinant human SK (Homo sapiens, UniProt Q9NYA1); assay: Inhibition of recombinant human SK, LC/MS/MS assay; type: biochemical; settings: 6 μg/ml compound
T1 construct: glutathione-S-transferase (GST) (N); made in house; host or cells: bacteria (pGEX vector)
T1 sequence (Q9NYA1 whole entry): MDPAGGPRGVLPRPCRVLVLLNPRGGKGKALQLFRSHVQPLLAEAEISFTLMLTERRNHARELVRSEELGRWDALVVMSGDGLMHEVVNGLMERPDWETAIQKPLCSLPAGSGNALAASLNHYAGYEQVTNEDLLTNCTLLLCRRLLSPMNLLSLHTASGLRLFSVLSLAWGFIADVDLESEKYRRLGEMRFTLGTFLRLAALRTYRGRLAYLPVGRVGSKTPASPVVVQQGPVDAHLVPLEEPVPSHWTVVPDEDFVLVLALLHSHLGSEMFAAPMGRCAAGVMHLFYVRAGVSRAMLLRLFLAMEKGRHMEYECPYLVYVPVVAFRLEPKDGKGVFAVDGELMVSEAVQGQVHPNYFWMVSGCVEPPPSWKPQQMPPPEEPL
Procedure: An assay for identifying inhibitors of recombinant human SK has been established (French et al., 2003, Cancer Res 63: 5962). cDNA for human SK was subcloned into a pGEX bacterial expression vector, which results in expression of the enzyme as a fusion protein with glutathione-S-transferase, and the fusion protein is then purified on a column of immobilized glutathione. SK activity is measured by incubation of the recombinant SK with [^3H]sphingosine and 1 mM ATP under defined conditions, followed by extraction of the assay mixture with chloroform:methanol under basic conditions. […] Radioactivity in aliquots of the aqueous phase is then quantified as a measure of [^3H]S1P formation. There is a low background level of partitioning of [^3H]sphingosine into the aqueous phase, and addition of the recombinant SK greatly increases the formation of [^3H]S1P.
In an alternate assay procedure, the recombinant human SK was incubated with unlabeled sphingosine and ATP as described above. After 30 minutes, the reactions were terminated by the addition of acetonitrile to directly extract the newly synthesized S1P. The amount of S1P in the samples is then quantified as follows. C17 base D-erythro-sphingosine and C17 S1P are used as internal standards for sphingosine and S1P, respectively. These seventeen-carbon fatty acid-linked sphingolipids are not naturally produced, making these analogs excellent standards. The lipids are then fractionation by High-Performance Liquid Chromatography using a C8-reverse phase column eluted with 1 mM methanolic ammonium formate/2 mM aqueous ammonium formate. A Finnigan LCQ Classic LC-MS/MS is used in the multiple reaction monitoring positive ionization mode to acquire ions at m/z of 300 (precursor ion)→282 (product ion) for sphingosine and 380→264 for S1P. Calibration curves are generated by plotting the peak area ratios of the synthetic standards for each sphingolipid, and used to determine the normalized amounts of sphingosine and S1P in the samples.
Each Compound of this invention was tested for its ability to inhibit recombinant SK using the LC/MS/MS assay described above. Typically, the Compounds were individually dissolved in dimethylsulfoxide and tested at a final concentration of 6 micrograms/ml.

Compound	IC50 ([1]; Homo sapiens, MCF7) [µM]	inhibition at 6 µg/mL (recombinant human SK) [%]	IC50 [1] [µM]
CC(=O)Oc1ccc(C=CC(=O)Nc2nc(-c3ccc(Cl)cc3)cs2)cc1 [Compound 12, Acetic acid 4-{2-[4-(4-chloro-phenyl)-thiazol-2-ylcarbamoyl]-vinyl}-phenyl ester]	125	–	–
CCCC(=O)Oc1ccc(CC(=O)Nc2nc(-c3ccc(Cl)cc3)cs2)cc1[N+](=O)[O-] [Compound 30, Butyric acid 4-{[4-(4-chloro-phenyl)-thiazol-2-ylcarbamoyl]-methyl}-2-nitro-phenyl ester]	32	0	–
O=C(NCc1ccncc1)c1nc(-c2ccc(Cl)cc2)cs1 [Compound 34, 4-(4-Chloro-phenyl)thiazole-2-carboxylic acid (pyridin-4-ylmethyl)amide]	38	0	–
O=C(Nc1nc2cc(Cl)ccc2s1)c1ccccc1O [Compound 96, N-(5-Chloro-benzothiazol-2-yl)-2-hydroxy-benzamide]	24	–	–
O=C(C=Cc1ccc([N+](=O)[O-])cc1)Nc1nc2cc(Cl)ccc2o1 [Compound 89, N-(5-Chloro-benzooxazol-2-yl)-3-(4-nitro-phenyl)-acrylamide]	1.2	–	–
O=C(Nc1nc2cc(Cl)ccc2o1)c1ccccc1[N+](=O)[O-] [Compound 87, N-(5-Chloro-benzooxazol-2-yl)-2-nitro-benzamide]	9.8	–	–
COc1cc(C=CC(=O)Nc2nc(-c3cccc(Cl)c3)cs2)ccc1O [Compound 9, N-[4-(3-Chloro-phenyl)-thiazol-2-yl]-3-(4-hydroxy-3-methoxy-phenyl)-acrylamide]	7.8	–	–
CCCC(=O)Oc1ccccc1C=CC(=O)Nc1nc(-c2ccc(Cl)cc2)cs1 [Compound 13, Butyric acid 2-{2-[4-(4-chloro-phenyl)-thiazol-2-ylcarbamoyl]-vinyl}-phenyl ester]	2.3	0	–
CCCC(=O)Oc1ccc(CC(=O)Nc2nc(-c3ccc(Cl)cc3)cs2)cc1OC [Compound 16, Butyric acid 4-{[4-(4-chloro-phenyl)-thiazol-2-ylcarbamoyl]-methyl}-2-methoxy-phenyl ester]	5.6	–	–
C=CCCCCCCCCC(=O)Nc1nc2cc(Cl)ccc2o1 [Compound 90, Undec-10-enoic acid (5-chloro-benzooxazol-2-yl)-amide]	19	–	–
O=C(C=Cc1ccccc1)Nc1nc2cc(Cl)ccc2o1 [Compound 88, N-(5-Chloro-benzooxazol-2-yl)-3-phenyl-acrylamide]	1.3	–	–
CCCC(=O)Oc1ccc(C=CC(=O)Nc2nc(-c3ccc(F)cc3)cs2)cc1OC [Compound 28, Butyric acid 4-{2-[4-(4-fluoro-phenyl)-thiazol-2-ylcarbamoyl]-vinyl}-2-methoxy-phenyl ester]	–	87	–
O=C(NCCN1CCOCC1)c1nc(-c2ccc(Cl)cc2)cs1 [Compound 76, 4-(4-Chloro-phenyl)-thiazole-2-carboxylic acid (2-morpholin-4-yl-ethyl)-amide]	–	51	–
O=C(NCc1ccc(F)cc1Cl)c1nc(-c2ccc(Cl)cc2)cs1 [Compound 38, 4-(4-Chloro-phenyl)-thiazole-2-carboxylic acid 2-chloro-4-fluoro-benzylamide]	–	75	–
Fc1cc(F)cc(OCNc2nc(-c3ccc(Cl)cc3)cs2)c1 [Compound 77, [4-(4-Chloro-phenyl)-thiazol-2-yl]-(3,5-difluoro-phenoxymethyl)-amine]	–	85	–
CSc1ccc(CNC(=O)c2nc(-c3ccc(Cl)cc3)cs2)cc1 [Compound 51, 4-(4-Chloro-phenyl)-thiazole-2-carboxylic Acid 4-methylsulfanyl-benzylamide]	–	36	–
O=C(Nc1nc(-c2ccc(Cl)cc2)cs1)c1ccc(Cl)cc1Cl [Compound 68, 2,4-Dichloro-N-[4-(4-chloro-phenyl)-thiazol-2-yl]-benzamide]	–	73	–
O=C(NCc1ccc(Oc2ccccc2)cc1)c1nc(-c2ccc(Cl)cc2)cs1 [Compound 54, 4-(4-Chloro-phenyl)-thiazole-2-carboxylic Acid 4-phenoxy-benzylamide]	–	25	–

Compound	IC50 ([1]; Homo sapiens, MCF7) [µM]	inhibition at 6 µg/mL (recombinant human SK) [%]	IC50 [1] [µM]
O=C(NCc1ccc(F)c(C(F)(F)F)c1)c1nc(-c2ccc(Cl)cc2)cs1 [Compound 53, 4-(4-Chloro-phenyl)-thiazole-2-carboxylic Acid 4-fluoro-3-trifluoromethyl-benzylamide]	–	44	–
CCCCCCCCCCCCCC(=O)Nc1nc2cc(Cl)ccc2o1 [Compound 91, Tetradecanoic Acid (5-chloro-benzooxazol-2-yl)-amide]	2.6	–	–
CCCC(=O)Oc1ccc(C=CC(=O)Nc2nc(-c3ccc(Cl)cc3)cs2)cc1OC(=O)CCC [Compound 11, Butyric acid 2-butyryloxy-5-{2-[4-(4-chloro-phenyl)-thiazol-2-ylcarbamoyl]-vinyl}-phenyl ester]	10	–	–
O=C(NCc1ccc(C(F)(F)F)cc1F)c1nc(-c2ccc(Cl)cc2)cs1 [Compound 49, 4-(4-Chloro-phenyl)-thiazole-2-carboxylic Acid 2-fluoro-4-trifluoromethyl-benzylamide]	–	67	–
CCCC(=O)Oc1cc(C=CC(=O)Nc2nc(-c3ccc(Cl)cc3)cs2)ccc1OC [Compound 18, Butyric acid 5-{2-[4-(4-chloro-phenyl)-thiazol-2-ylcarbamoyl]-vinyl}-2-methoxy-phenyl ester]	2.7	–	–
CCCCCCCCCCCCCCCC(=O)Nc1nc2cc(Cl)ccc2o1 [Compound 92, Hexadecanoic Acid (5-chloro-benzooxazol-2-yl)-amide]	7.6	–	–
CC(NC(=O)c1nc(-c2ccc(Cl)cc2)cs1)c1ccc(Cl)cc1 (stereo not drawn) [Compound 56, 4-(4-Chloro-phenyl)-thiazole-2-carboxylic Acid [1-(4-chloro-phenyl)-ethyl]-amide]	–	81	–
CCCC(=O)Oc1ccc(C=CC(=O)Nc2nc(-c3ccc(C)cc3)cs2)cc1OC [Compound 19, Butyric acid 2-methoxy-4-[2-(4-p-tolyl-thiazol-2-ylcarbamoyl)-vinyl]-phenyl ester]	–	36	–
O=C(Nc1nc(-c2ccc(Cl)cc2)cs1)c1ccc(C(F)(F)F)cc1F [Compound 66, N-[4-(4-Chloro-phenyl)-thiazol-2-yl]-2-fluoro-4-trifluoromethyl-benzamide]	–	61	–
O=C(Nc1cc(F)cc(F)c1)c1nc(-c2ccc(Cl)cc2)cs1 [Compound 50, 4-(4-Chloro-phenyl)-thiazole-2-carboxylic Acid (3,5-difluoro-phenyl)-amide]	–	21	–
O=C(Nc1nc(-c2ccc(Cl)cc2)cs1)C(Cl)c1ccccc1 (stereo not drawn) [Compound 69, 2-Chloro-N-[4-(4-chloro-phenyl)-thiazol-2-yl]-2-phenyl-acetamide]	–	55	–
CCCC(=O)Oc1ccc(CC(=O)Nc2nc(-c3ccc(Cl)cc3)cs2)cc1OC(=O)CCC [Compound 17, Butyric acid 2-butyryloxy-5-{[4-(4-chloro-phenyl)-thiazol-2-ylcarbamoyl]-methyl}-phenyl ester]	4	–	–
CN1CCCC1CCNC(=O)c1nc(-c2ccc(Cl)cc2)cs1 (stereo not drawn) [Compound 45, 4-(4-Chloro-phenyl)-thiazole-2-carboxylic acid [2-(1-methyl-pyrrolidin-2-yl)-ethyl]-amide]	–	42	–
O=C(NCc1ccc(F)c(F)c1)c1nc(-c2ccc(Cl)cc2)cs1 [Compound 40, 4-(4-Chloro-phenyl)-thiazole-2-carboxylic acid 3,4-difluoro-benzylamide]	–	56	–
O=C(NCc1ccc(Cl)c(C(F)(F)F)c1)c1nc(-c2ccc(Cl)cc2)cs1 [Compound 37, 4-(4-Chloro-phenyl)-thiazole-2-carboxylic acid 4-chloro-3-trifluoromethyl-benzylamide]	–	23	–
4-(4-Chloro-phenyl)-thiazole-2-carboxylic acid (2-pyridin-4-yl)-amide [Compound 74]	–	–	120
O=C(Nc1nnn[nH]1)c1nc(-c2ccc(Cl)cc2)cs1 [Compound 62, 4-(4-Chloro-phenyl)-thiazole-2-carboxylic Acid (1H-tetrazol-5-yl)-amide]	–	60	–
CC(C)(C)NCCCNC(=O)c1nc(-c2ccc(Cl)cc2)cs1 [Compound 57, 4-(4-Chloro-phenyl)-thiazole-2-carboxylic Acid (3-tert-butylamino-propyl)-amide]	–	16	–
